Results taken from patent publication EP0343801A2, “N-(5,6,7,8-tetrahydropyrido(2,3-D)pyrimidin-6-yl-alkanoyl)-glutamic acid derivatives” (THE TRUSTEES OF PRINCETON UNIVERSITY, priority 1988, dated 1989).
In brackets after ≈: the same amount, converted by molar mass. Values belong to the compound of their own block, whether it stands above or below them.

What was measured:
CCRF-CEM = assay: IC50 in whole cell human leukemia cell lines, CCRF-CEM; assay type: cell-based; details: read-out: IC₅₀
Method: The IC₅₀ in whole cell human leukemia cell lines, CCRF-CEM, of N-[5-(2-{2-amino-4-hydroxy-5,6,7,8-tetrahydropyrido[2,3-d]pyrimidin-6-yl}ethyl)thien-2-ylcarbonyl]-L-glutamic acid is 0.0015 ug/mL. The IC₅₀ of N-[5-(2-{2-amino-4-hydroxy-5,6,7,8-tetrahydropyrido[2,3-d]pyrimidin-6-yl}ethyl)fur-2-ylcarbonyl]-L-glutamic acid is 0.010 ug/mL. The IC₅₀ of N-[4-(2-{2-amino-4-hydroxy-5,6,7,8-tetrahydropyrido[2,3-d]pyrimidin-6-yl}-ethyl)thien-2-ylcarbonyl]-L-glutamic acid is 0.0756 ug/mL.
The IC₅₀ in whole cell human leukemia cell lines, CCRF-CEM, of other compounds of this invention are as follows: […]

[1] = tested on: 6C3HED lymphosarcoma tumors; assay: In vivo evaluation against 6C3HED lymphosarcoma tumors in mice; details: IP, daily administration
LX-1 Lung Xenography = assay: In vivo evaluation against LX-1 Lung Xenography in mice; details: IP, daily administration, days 1, 4, 7, 10
CX-1 Colon Xenography = assay: In vivo evaluation against CX-1 Colon Xenography in mice; details: IP, daily administration, days 1, 4, 7, 10
[2] = tested on: C3H Mammary Adenocarcinoma tumors; assay: In vivo evaluation against C3H Mammary Adenocarcinoma tumors in mice; details: IP, daily administration, days 1, 4, 7, 10
B-16 Melanoma tumors = assay: In vivo evaluation against B-16 Melanoma tumors in mice; details: IP, daily administration, days 1, 7
[3] = tested on: CA-755 Adenocarcinoma tumors; assay: In vivo evaluation against CA-755 Adenocarcinoma tumors in mice; details: IP, daily administration, days 1, 4, 7, 10
MX-1 Mammary Xenography = assay: In vivo evaluation against MX-1 Mammary Xenography in mice; details: IP, daily administration, days 1, 4, 7, 10

Compound: Nc1nc(O)c2c(n1)NCC(CCCC(=O)N[C@@H](CCC(=O)O)C(=O)O)C2 (stereo partly drawn) [N-[4-(2-amino-4-hydroxy-5,6,7,8-tetrahydropyrido[2,3-d]pyrimidin-6-yl)butyryl]-L-glutamic acid]
% Inhibition ([1]; 3.12 mg/kg, eight days): 0%
Toxicity ([1]; 3.12 mg/kg, eight days): 0/10
% Inhibition ([1]; 6.25 mg/kg, eight days): 11%
Toxicity ([1]; 6.25 mg/kg, eight days): 0/10
% Inhibition ([1]; 12.5 mg/kg, eight days): 62%
Toxicity ([1]; 12.5 mg/kg, eight days): 0/10
% Inhibition ([1]; 25 mg/kg, eight days): 88%
Toxicity ([1]; 25 mg/kg, eight days): 0/10
% Inhibition ([1]; 50 mg/kg, eight days): 98%
Toxicity ([1]; 50 mg/kg, eight days): 1/10

Compound: Nc1nc(O)c2c(n1)NCC(CCc1ccc(C(=O)N[C@@H](CCC(=O)O)C(=O)O)s1)C2 (stereo partly drawn) [N-[5-(2-{2-Amino-4-hydroxy-5,6,7,8-tetrahydropyrido[2,3-d]pyrimidin-6-yl}ethyl)thien-2-ylcarbonyl]-L-glutamic Acid]
% Inhibition (LX-1 Lung Xenography; 10 mg/kg): 98%
Toxicity (LX-1 Lung Xenography; 10 mg/kg): 0/8
% Inhibition (LX-1 Lung Xenography; 20 mg/kg): 100%
Toxicity (LX-1 Lung Xenography; 20 mg/kg): 4/8
% Inhibition (LX-1 Lung Xenography; 40 mg/kg): toxic
Toxicity (LX-1 Lung Xenography; 40 mg/kg): 8/8
% Inhibition (CX-1 Colon Xenography; 5 mg/kg): 90%
Toxicity (CX-1 Colon Xenography; 5 mg/kg): 3/10
% Inhibition (CX-1 Colon Xenography; 10 mg/kg): 94%
Toxicity (CX-1 Colon Xenography; 10 mg/kg): 6/10
% Inhibition (CX-1 Colon Xenography; 20 mg/kg): 91%
Toxicity (CX-1 Colon Xenography; 20 mg/kg): 9/10
% Inhibition (CX-1 Colon Xenography; 40 mg/kg): toxic
Toxicity (CX-1 Colon Xenography; 40 mg/kg): 10/10
% Inhibition ([2]; 2.5 mg/kg): 71%
Toxicity ([2]; 2.5 mg/kg): 0/10
% Inhibition ([2]; 5 mg/kg): 90%
Toxicity ([2]; 5 mg/kg): 1/10
% Inhibition ([2]; 10 mg/kg): 94%
Toxicity ([2]; 10 mg/kg): 0/10
% Inhibition ([2]; 20 mg/kg): 100%
Toxicity ([2]; 20 mg/kg): 0/10
% Inhibition ([2]; 40 mg/kg): 100%
Toxicity ([2]; 40 mg/kg): 0/10
% Inhibition ([1]; 0.78 mg/kg, 10 days): 93%
Toxicity ([1]; 0.78 mg/kg, 10 days): 0/10
% Inhibition ([1]; 1.56 mg/kg, 10 days): 100%
Toxicity ([1]; 1.56 mg/kg, 10 days): 0/10
% Inhibition ([1]; 3.12 mg/kg, 10 days): 100%
Toxicity ([1]; 3.12 mg/kg, 10 days): 6/10
% Inhibition ([1]; 6.25 mg/kg, 10 days): toxic
Toxicity ([1]; 6.25 mg/kg, 10 days): 10/10
% Inhibition (B-16 Melanoma tumors; 50 mg/kg): 38%
Toxicity (B-16 Melanoma tumors; 50 mg/kg): 0/9
% Inhibition (B-16 Melanoma tumors; 100 mg/kg): 73%
Toxicity (B-16 Melanoma tumors; 100 mg/kg): 3/10
% Inhibition (B-16 Melanoma tumors; 200 mg/kg): 93%
Toxicity (B-16 Melanoma tumors; 200 mg/kg): 4/10
% Inhibition ([3]; 20 mg/kg): 78%
Toxicity ([3]; 20 mg/kg): 0/10
% Inhibition ([3]; 40 mg/kg): 83%
Toxicity ([3]; 40 mg/kg): 0/10
IC50 (CCRF-CEM): 0.0015 µg/mL (≈ 0.00334 µM)
% Inhibition (MX-1 Mammary Xenography; 5 mg/kg): 84%
Toxicity (MX-1 Mammary Xenography; 5 mg/kg): 3/10
% Inhibition (MX-1 Mammary Xenography; 10 mg/kg): 96%
Toxicity (MX-1 Mammary Xenography; 10 mg/kg): 5/10
% Inhibition (MX-1 Mammary Xenography; 20 mg/kg): toxic
Toxicity (MX-1 Mammary Xenography; 20 mg/kg): 9/9
% Inhibition (MX-1 Mammary Xenography; 40 mg/kg): toxic
Toxicity (MX-1 Mammary Xenography; 40 mg/kg): 10/10

Compound: Nc1nc(O)c2c(n1)NCC(CCc1ccc(C(=O)N[C@@H](CCC(=O)O)C(=O)O)o1)C2 (stereo partly drawn) [N-[5-(2-{2-amino-4-hydroxy-5,6,7,8-tetrahydropyrido[2,3-d]pyrimidin-6-yl}ethyl)fur-2-ylcarbonyl]-L-glutamic acid]
% Inhibition ([1]; 0.625 mg/kg, days 1, 4, 7): 1%
Toxicity ([1]; 0.625 mg/kg, days 1, 4, 7): 0/10
% Inhibition ([1]; 1.25 mg/kg, days 1, 4, 7): 29%
Toxicity ([1]; 1.25 mg/kg, days 1, 4, 7): 0/10
% Inhibition ([1]; 2.5 mg/kg, days 1, 4, 7): 98%
Toxicity ([1]; 2.5 mg/kg, days 1, 4, 7): 0/10
% Inhibition ([1]; 5 mg/kg, days 1, 4, 7): 97%
Toxicity ([1]; 5 mg/kg, days 1, 4, 7): 0/10
% Inhibition ([1]; 10 mg/kg, days 1, 4, 7): 100%
Toxicity ([1]; 10 mg/kg, days 1, 4, 7): 0/10
% Inhibition ([1]; 20 mg/kg, days 1, 4, 7): 100%
Toxicity ([1]; 20 mg/kg, days 1, 4, 7): 0/10
% Inhibition ([1]; 25 mg/kg, eight days): 59%
Toxicity ([1]; 25 mg/kg, eight days): 0/10
% Inhibition ([1]; 50 mg/kg, eight days): 69%
Toxicity ([1]; 50 mg/kg, eight days): 0/10
% Inhibition ([1]; 100 mg/kg, eight days): 89%
Toxicity ([1]; 100 mg/kg, eight days): 0/10
IC50 (CCRF-CEM): 0.01 µg/mL (≈ 0.0231 µM)

Compound: Nc1nc(O)c2c(n1)NCC(CCC1CCC(C(=O)N[C@@H](CCC(=O)O)C(=O)O)CC1)C2 (stereo partly drawn) [N-{4-[2-(2-amino-4-hydroxy-5,6,7,8-tetrahydropyrido[2,3-d]pyrimidin-6-yl)ethyl]cyclohexylcarbonyl}-L-glutamic acid]
% Inhibition ([1]; 12.5 mg/kg, eight days): 18%
Toxicity ([1]; 12.5 mg/kg, eight days): 0/10
% Inhibition ([1]; 25 mg/kg, eight days): 4%
Toxicity ([1]; 25 mg/kg, eight days): 0/10
% Inhibition ([1]; 50 mg/kg, eight days): 5%
Toxicity ([1]; 50 mg/kg, eight days): 0/10
% Inhibition ([1]; 100 mg/kg, eight days): 22%
Toxicity ([1]; 100 mg/kg, eight days): 0/9
IC50 (CCRF-CEM): 0.007 µg/mL (≈ 0.0156 µM)

Other lines, results leading:

IC50 (CCRF-CEM): 0.023 µg/mL (≈ 0.0582 µM)
Compound: Nc1nc(O)c2c(n1)NCC(CCCCC(=O)N[C@@H](CCC(=O)O)C(=O)O)C2 (stereo partly drawn) [-(CH₂)₂-, N-[5-(2-amino-4-hydroxy-5,6,7,8-tetrahydropyrido[2,3-d]pyrimidin-6-yl)pentanoyl]-L-glutamic acid]

IC50 (CCRF-CEM): 0.0075 µg/mL (≈ 0.0183 µM)
Compound: Nc1nc(O)c2c(n1)NCC(CCCCCC(=O)N[C@@H](CCC(=O)O)C(=O)O)C2 (stereo partly drawn) [-(CH₂)₃-, N-[6-(2-Amino-4-hydroxy-5,6,7,8-tetrahydropyrido[2,3-d]pyrimidin-6-yl)hexanoyl]-L-glutamic Acid]

IC50 (CCRF-CEM): 0.034 µg/mL (≈ 0.0803 µM)
Compound: Nc1nc(O)c2c(n1)NCC(CCCCCCC(=O)N[C@@H](CCC(=O)O)C(=O)O)C2 (stereo partly drawn) [-(CH₂)₄- CH₂-CH₂, N-[7-(2-Amino-4-hydroxy-5,6,7,8-tetrahydropyrido[2,3-d]pyrimidin-6-yl)heptanoyl]-L-glutamic acid]

IC50 (CCRF-CEM): 0.0756 µg/mL (≈ 0.168 µM)
Compound: Nc1nc(O)c2c(n1)NCC(CCc1csc(C(=O)N[C@@H](CCC(=O)O)C(=O)O)c1)C2 (stereo partly drawn) [N-[4-(2-{2-amino-4-hydroxy-5,6,7,8-tetrahydropyrido[2,3-d]pyrimidin-6-yl}ethyl)thien-2-ylcarbonyl]-L-glutamic acid]
